Assay results as given in patent US20220192192A1, “LOW VOLATILITY HERBICIDAL COMPOSITIONS” (Monsanto Technology LLC, priority 2012, published 2022).

Test: Measurement of dicamba volatility (humidome): dicamba concentration in air by LC-MS
Type: physicochemical
Conditions: di- and tri-carboxylic acids tested in dicamba compositions
Description: Humidomes obtained from Hummert International (Part Nos 14-3850-2 for humidomes and 11-3050-1 for 1020 flat tray) were modified by cutting a 2.2 cm diameter hole on one end approximately 5 cm from the top to allow for insertion of a glass air sampling tube (22 mm OD) containing a polyurethane foam (PUF) filter. The sampling tube was secured with a VITON o-ring on each side of the humidome wall. The air sampling tube external to the humidome was fitted with tubing that was connected to a vacuum manifold immediately prior to sampling. […] The flat tray bottom containing the dicamba formulation on soil was covered with the humidome lid and the lid was secured with clamps. The assembled humidomes were placed in a temperature and humidity controlled environment and connected to a vacuum manifold through the air sampling line. Air was drawn through the humidome and PUF at a rate of 2 liters per minute (LPM) for 24 hours at which point the air sampling was stopped. The humidomes were then removed from the controlled environment and the PUF filter was removed. The PUF filter was extracted with 20 mL of methanol and the solution was analyzed for dicamba concentration using LC-MS methods known in the art. […] Where glyphosate was added or was part of the formulation, glyphosate was present at a concentration of 2.4% a.e. or 2.0 lb/A a.e. Where 2,4-D was added or was part of the formulation, 2,4-D was present at 2.4% ae or 2.0 lb/A ae at 10 gallons per acre (GPA). The growth chambers were set at 35° C. and 40% relative humidity (RH). For each composition four separate humidome boxes were sprayed to have 4 replicate measurements for each formulation. Tables 3-1 to 3-12 below provide the mean concentration of dicamba in air for the tested formulations.

Effect of the acid on dicamba volatility, did not reduce dicamba volatility:
O=C(O)CC(O)C(=O)O (stereo not shown) [malic acid]
O=C(O)C(=O)O [oxalic acid]
O=C(O)CC(O)(CC(=O)O)C(=O)O [citric acid]
O=C(O)CCC(=O)O [succinic acid]
